Article PMC4305287, “Two Novel α7 Nicotinic Acetylcholine Receptor Ligands: In Vitro Properties and Their Efficacy in Collagen-Induced Arthritis in Mice” (PLoS ONE, 2015)
Where two headings read alike, the source gives them in different places.

Columns and labels:
α4β2 nAChR [1] = molecular target: T1, α4β2 nAChR (Rattus norvegicus, UniProt P09483+P12390); assay: cytisine binding to rat brain membranes; conditions: read-out: Ki, α4β2nAChR binding affinity
T1 construct: tissue Cerep; host or cells: rat brain membranes
T1 sequence (P09483 31-630): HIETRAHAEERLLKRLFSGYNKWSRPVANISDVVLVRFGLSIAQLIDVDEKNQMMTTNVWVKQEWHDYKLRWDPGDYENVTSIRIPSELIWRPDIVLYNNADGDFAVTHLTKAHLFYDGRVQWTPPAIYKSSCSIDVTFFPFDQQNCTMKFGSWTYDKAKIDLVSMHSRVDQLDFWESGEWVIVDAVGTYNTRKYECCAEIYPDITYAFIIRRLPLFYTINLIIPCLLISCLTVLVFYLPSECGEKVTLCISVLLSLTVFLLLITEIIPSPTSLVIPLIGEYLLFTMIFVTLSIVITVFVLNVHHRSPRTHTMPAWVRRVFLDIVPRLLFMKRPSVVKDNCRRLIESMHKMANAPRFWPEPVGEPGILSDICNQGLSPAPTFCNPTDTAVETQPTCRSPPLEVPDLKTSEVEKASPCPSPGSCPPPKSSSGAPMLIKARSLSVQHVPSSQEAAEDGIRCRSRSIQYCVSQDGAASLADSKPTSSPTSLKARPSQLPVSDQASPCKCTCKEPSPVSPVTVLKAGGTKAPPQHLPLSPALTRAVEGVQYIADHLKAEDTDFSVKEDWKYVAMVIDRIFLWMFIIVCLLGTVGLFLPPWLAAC
T1 sequence (P12390 25-500): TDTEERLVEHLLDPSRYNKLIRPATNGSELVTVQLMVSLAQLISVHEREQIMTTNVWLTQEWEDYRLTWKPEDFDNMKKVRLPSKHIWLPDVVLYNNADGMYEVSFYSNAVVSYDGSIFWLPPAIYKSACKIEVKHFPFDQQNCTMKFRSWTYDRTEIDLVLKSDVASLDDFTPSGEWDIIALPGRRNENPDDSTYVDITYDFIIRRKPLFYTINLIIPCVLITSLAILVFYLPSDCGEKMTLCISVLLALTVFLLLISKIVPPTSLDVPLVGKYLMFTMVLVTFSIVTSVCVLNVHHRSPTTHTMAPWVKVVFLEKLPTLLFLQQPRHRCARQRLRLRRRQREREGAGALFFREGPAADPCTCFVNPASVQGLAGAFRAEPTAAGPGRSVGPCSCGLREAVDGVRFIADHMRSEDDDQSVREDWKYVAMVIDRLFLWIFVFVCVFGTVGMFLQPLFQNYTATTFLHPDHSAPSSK
Method: (§1) Broad selectivity was assessed at Cerep (Celle l’ Evescault, France), as described in the Cerep catalog, though the determination of the effect of PMP-311 and PMP-072 in in vitro radioligand receptor binding assays with 52 different receptors, channels, and transporters. The specific ligand binding to the receptors is defined as the difference between the total binding, and the nonspecific binding determined in the presence of an excess of unlabelled ligand. The results are expressed as a percent of control specific binding and as the mean percent inhibition of control specific binding obtained in the presence of 10 μM PMP-311 and PMP-072. Individual and mean values are presented in the results section. The IC50 values (concentration causing a half-maximal inhibition of control specific binding) and Hill coefficients (nH) were determined by non-linear regression as described above.

[2] = molecular target: T2, α1β1 nAChR (muscle receptor) (Homo sapiens, UniProt P02708+P07510+P11230+Q07001); assay: α-bungarotoxin binding to TE671 cell membranes
T2 construct: host or cells: TE671 cell membranes
T2 sequence (P02708 21-457): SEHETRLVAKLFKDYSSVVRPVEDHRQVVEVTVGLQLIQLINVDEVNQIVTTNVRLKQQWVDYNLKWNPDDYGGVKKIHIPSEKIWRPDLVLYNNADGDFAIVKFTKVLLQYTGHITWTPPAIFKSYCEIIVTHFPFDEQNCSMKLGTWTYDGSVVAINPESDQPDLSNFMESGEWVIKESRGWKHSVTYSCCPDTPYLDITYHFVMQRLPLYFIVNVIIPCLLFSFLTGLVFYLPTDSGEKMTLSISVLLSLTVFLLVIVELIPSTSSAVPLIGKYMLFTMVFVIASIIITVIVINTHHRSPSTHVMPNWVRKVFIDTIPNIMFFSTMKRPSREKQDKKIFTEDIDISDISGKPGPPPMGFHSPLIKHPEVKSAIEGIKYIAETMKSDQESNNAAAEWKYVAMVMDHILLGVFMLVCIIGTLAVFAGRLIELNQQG
T2 sequence (Q07001 22-517): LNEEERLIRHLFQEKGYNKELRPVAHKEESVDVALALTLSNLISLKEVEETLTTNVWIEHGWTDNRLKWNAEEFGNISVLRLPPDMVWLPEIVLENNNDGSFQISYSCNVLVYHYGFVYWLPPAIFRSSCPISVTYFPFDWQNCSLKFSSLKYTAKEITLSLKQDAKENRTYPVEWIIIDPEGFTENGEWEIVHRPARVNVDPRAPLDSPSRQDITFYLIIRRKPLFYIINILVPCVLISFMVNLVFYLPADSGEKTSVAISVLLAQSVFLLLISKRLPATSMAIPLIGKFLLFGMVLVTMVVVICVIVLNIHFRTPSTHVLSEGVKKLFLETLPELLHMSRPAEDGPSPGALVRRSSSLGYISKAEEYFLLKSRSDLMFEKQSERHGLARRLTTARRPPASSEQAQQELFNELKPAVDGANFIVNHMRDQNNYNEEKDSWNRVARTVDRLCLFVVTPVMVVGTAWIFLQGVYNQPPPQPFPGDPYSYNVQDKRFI
T2 sequence (P07510 23-517): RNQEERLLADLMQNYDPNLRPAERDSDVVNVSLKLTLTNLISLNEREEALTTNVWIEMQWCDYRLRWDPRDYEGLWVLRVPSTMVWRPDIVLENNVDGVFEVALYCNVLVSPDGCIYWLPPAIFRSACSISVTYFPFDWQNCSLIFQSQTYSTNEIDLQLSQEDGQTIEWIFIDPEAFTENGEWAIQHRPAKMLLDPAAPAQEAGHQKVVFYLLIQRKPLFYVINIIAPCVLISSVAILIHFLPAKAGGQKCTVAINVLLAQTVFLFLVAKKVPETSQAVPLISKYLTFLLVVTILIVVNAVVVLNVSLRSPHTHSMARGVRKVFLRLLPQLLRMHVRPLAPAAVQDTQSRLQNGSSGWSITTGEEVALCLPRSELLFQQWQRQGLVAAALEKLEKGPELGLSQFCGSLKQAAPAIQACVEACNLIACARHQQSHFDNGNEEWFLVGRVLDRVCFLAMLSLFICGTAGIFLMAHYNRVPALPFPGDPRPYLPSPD
T2 sequence (P11230 24-501): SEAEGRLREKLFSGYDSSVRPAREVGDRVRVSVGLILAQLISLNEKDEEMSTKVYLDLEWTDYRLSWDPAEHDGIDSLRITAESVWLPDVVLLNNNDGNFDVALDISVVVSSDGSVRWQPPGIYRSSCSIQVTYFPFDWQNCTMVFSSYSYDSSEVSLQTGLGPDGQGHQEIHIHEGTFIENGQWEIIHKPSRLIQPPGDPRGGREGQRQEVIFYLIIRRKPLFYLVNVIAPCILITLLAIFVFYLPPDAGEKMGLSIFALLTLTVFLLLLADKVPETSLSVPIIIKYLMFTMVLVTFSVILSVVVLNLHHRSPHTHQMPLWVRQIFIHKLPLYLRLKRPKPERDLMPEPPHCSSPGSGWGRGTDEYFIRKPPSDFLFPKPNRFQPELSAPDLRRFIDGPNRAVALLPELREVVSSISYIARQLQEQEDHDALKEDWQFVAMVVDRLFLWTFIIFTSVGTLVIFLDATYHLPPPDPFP
Method: as §1

[3] = molecular target: T3, human serotonin transporter (Homo sapiens, UniProt P31645); assay: Cerep broad selectivity radioligand binding panel
T3 construct: Cerep
T3 sequence (P31645 whole entry): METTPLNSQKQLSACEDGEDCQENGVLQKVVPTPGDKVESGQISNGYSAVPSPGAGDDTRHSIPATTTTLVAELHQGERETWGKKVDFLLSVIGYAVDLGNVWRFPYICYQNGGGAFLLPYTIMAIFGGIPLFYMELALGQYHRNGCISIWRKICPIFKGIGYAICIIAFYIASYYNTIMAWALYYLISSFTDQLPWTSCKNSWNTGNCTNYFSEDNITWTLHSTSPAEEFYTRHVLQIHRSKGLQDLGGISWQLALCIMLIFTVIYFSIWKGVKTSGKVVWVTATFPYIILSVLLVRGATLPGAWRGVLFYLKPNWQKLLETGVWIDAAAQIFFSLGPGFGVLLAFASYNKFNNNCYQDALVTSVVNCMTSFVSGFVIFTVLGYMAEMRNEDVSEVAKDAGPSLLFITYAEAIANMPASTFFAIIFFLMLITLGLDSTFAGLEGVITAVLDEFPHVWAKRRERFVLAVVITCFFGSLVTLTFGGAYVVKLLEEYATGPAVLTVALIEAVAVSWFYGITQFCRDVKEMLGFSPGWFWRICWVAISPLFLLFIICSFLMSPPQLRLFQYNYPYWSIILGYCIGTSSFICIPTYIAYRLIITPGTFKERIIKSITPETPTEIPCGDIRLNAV
Method: as §1

human α7 nAChR = molecular target: T4, human α7 nAChR (Homo sapiens, UniProt P36544); assay: voltage-clamp electrophysiology in Xenopus oocytes; assay type: biochemical; conditions: for agonist activity at α7 nAChR ion channel: Xenopus oocyte membrane current, control conditions
T4 construct: expressed in transfected cells; host or cells: Xenopus laevis oocytes injected with cRNA; clones from Dr. Jon Lindstrom (α7) and Dr. Millet Treinin (RIC-3)
T4 sequence (P36544 23-502): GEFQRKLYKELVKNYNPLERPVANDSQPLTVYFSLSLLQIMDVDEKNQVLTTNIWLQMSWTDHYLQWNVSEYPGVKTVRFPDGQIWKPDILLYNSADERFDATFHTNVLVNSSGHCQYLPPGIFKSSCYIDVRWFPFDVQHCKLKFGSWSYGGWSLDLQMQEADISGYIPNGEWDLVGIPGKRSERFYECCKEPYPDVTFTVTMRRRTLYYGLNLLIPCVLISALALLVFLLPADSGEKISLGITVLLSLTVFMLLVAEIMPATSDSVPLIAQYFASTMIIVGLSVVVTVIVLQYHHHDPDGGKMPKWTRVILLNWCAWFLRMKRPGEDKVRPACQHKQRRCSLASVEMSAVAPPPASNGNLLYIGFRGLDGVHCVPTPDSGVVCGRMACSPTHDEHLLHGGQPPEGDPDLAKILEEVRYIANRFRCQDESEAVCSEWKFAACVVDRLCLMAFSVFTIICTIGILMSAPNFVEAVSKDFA
Method: (§2) Human nAChR receptor clones were obtained from Dr. Jon Lindstrom (University of Pennsylvania, Philadelphia, PA). The RIC-3 clone was obtained from Dr. Millet Treinin (Hebrew University, Jerusalem, Israel). Subsequent to linearization and purification of cloned cDNAs, RNA transcripts were prepared in vitro using the appropriate mMessage Machine kit from Ambion Inc. (Austin, TX).
The preparation of Xenopus laevis oocytes for RNA expression was conducted as previously described. Stage 5 oocytes were isolated and injected with […] (5–20 ng) of each subunit cRNAs. Recordings were conducted 2–5 days after injection. RNA coding for human α7 nAChR was routinely co-injected with the cDNA for human RIC-3, an accessory protein that improves and accelerates α7 nAChR expression without affecting the pharmacological properties of the receptors.
Experiments were conducted using OpusXpress6000A (Molecular Devices, Union City, CA) as described before. ACh applications were 12 seconds in duration.
Each oocyte received two initial control applications of 300 μM ACh, followed by the experimental drug application, and subsequent control application of 300 μM ACh, unless otherwise indicated. Responses to experimental drug applications were determined relative to the preceding ACh control responses in order to normalize the data, compensating for the varying levels of channel expression among the oocytes. Responses for α7 nAChR were calculated as net charge, since peak currents inaccurately report the agonist concentration dependence of α7 nAChR-mediated responses. For experiments measuring the effects of ACh and the experimental compounds on allosterically modulated receptors, following the acquisition of baseline responses, cells were given a 60 s application of 300 μM PNU-120596. […] For all experiments, means and standard error of the mean (SEM) were calculated from the normalized responses of at least four oocytes for each experimental concentration, plotted using Kaleidagraph 3.52 (Synergy Software, Reading, PA), and curves were generated from the Hill equation: Response=IMax[agonist]^n/[agonist]^n+(EC50)^n where Imax denotes the maximal response for a particular agonist/subunit combination, and n represents the Hill coefficient. Imax, n, and the EC50 were all unconstrained for the fitting procedures except in the case of the ACh concentration-response curves.

[4] = tested on: T5, human α7 nAChR primed with PNU-120596; assay: electrophysiology of oocytes primed with PNU-120596; assay type: biochemical; conditions: after 60 s priming with 300 μM PNU-120596; PMP-311 1 μM, PMP-072 10 μM, MLA 10 μM
T5 construct: expressed in transfected cells; host or cells: Xenopus laevis oocytes injected with cRNA; clones from Dr. Jon Lindstrom (α7) and Dr. Millet Treinin (RIC-3)
Method: Each oocyte received two initial control applications of 300 μM ACh, followed by the experimental drug application, and subsequent control application of 300 μM ACh, unless otherwise indicated. Responses to experimental drug applications were determined relative to the preceding ACh control responses in order to normalize the data, compensating for the varying levels of channel expression among the oocytes. Responses for α7 nAChR were calculated as net charge, since peak currents inaccurately report the agonist concentration dependence of α7 nAChR-mediated responses. […] Imax, n, and the EC50 were all unconstrained for the fitting procedures except in the case of the ACh concentration-response curves.

α4β2 nAChR [5] = molecular target: T6, α4β2 nAChR (Homo sapiens, UniProt P17787+P43681); assay: ion channel assay on α4β2 nAChR in Xenopus oocytes; assay type: biochemical; conditions: data not shown
T6 construct: expressed in transfected cells; host or cells: Xenopus laevis oocytes injected with subunit cRNAs; clones from Dr. Jon Lindstrom
Method: as §2
The preparation of Xenopus laevis oocytes for RNA expression was conducted as previously described. Stage 5 oocytes were isolated and injected with […] (5–20 ng) of each subunit cRNAs. Recordings were conducted 2–5 days after injection. […]
Each oocyte received two initial control applications of 300 μM ACh, followed by the experimental drug application, and subsequent control application of 300 μM ACh, unless otherwise indicated. Responses to experimental drug applications were determined relative to the preceding ACh control responses in order to normalize the data, compensating for the varying levels of channel expression among the oocytes. Responses for α7 nAChR were calculated as net charge, since peak currents inaccurately report the agonist concentration dependence of α7 nAChR-mediated responses. […]

Compound: COc1ccc(NC(=O)N2CCNC[C@@H]2COc2cccnc2)cc1 [PMP-072, (R)-N-(4-methoxyphenyl)-2-((pyridin-3-yloxy)methyl)piperazine-1-carboxamide]
- Ki (α4β2 nAChR [1]): > 100000 nM
- Ki [2]: > 100000 nM
- Ki [3]: 1800 nM
- agonist activity at α7 nAChR ion channel (human α7 nAChR): did not appear to be an agonist
- IC50 (human α7 nAChR; co-applied with 60 μM ACh, read-out: IC50, antagonism of ACh-stimulated α7 nAChR channel activity): 20 to 50 nM
- ion channel response of PNU-120596 primed cells [4]: able to activate large ion channel currents

Compound: c1cncc(OC[C@@H]2CNCCN2c2nc3ncccc3o2)c1 [PMP-311, (S)-2-(2-((Pyridin-3-yloxy)methyl)piperazin-1-yl)oxazolo[4,5-b]pyridine]
- Ki (α4β2 nAChR [1]): 30 nM
- Ki [2]: > 100000 nM
- inhibition at 10 µM ([3]; 10 μM): 72%
- agonist activity at α7 nAChR ion channel (human α7 nAChR): elicited a typical inward current
- EC50 (human α7 nAChR; Xenopus oocytes, read-out: EC50 of α7 nAChR activation): ~200 nM
- Emax (human α7 nAChR; net charge, normalized to 300 μM ACh, read-out: maximum response compared to ACh): ~85%
- IC50 (α4β2 nAChR [5]; read-out: IC50, antagonist of α4β2 nAChR): ~20 nM
- IC50 (α4β2 nAChR [5]; ion channel assay, read-out: IC50, inhibition of α4β2 nAChR): < 1000 nM
